Experiments:
Experiment in all cases: kinome scan
Type in all cases: binding
Conditions in all cases: 10 µM
[1] = molecular target: T1, DCAMKL3 (Homo sapiens, UniProt Q9C098)
T1 construct: purchased DiscoverX (KINOMEscan)

[2] = molecular target: T2, NEK7 (Homo sapiens, UniProt Q8TDX7)
T2 construct: purchased DiscoverX (KINOMEscan)

[3] = molecular target: T3, CDC2L2 (Homo sapiens, UniProt Q9UQ88)
T3 construct: purchased DiscoverX (KINOMEscan)

[4] = molecular target: T4, JAK3(JH1domain-catalytic) (Homo sapiens, UniProt P52333)
T4 construct: JAK3(JH1domain-catalytic); purchased DiscoverX (KINOMEscan)

[5] = molecular target: T5, TBK1 (Homo sapiens, UniProt Q9UHD2)
T5 construct: purchased DiscoverX (KINOMEscan)

[6] = molecular target: T6, ACVR1B (Homo sapiens, UniProt P36896)
T6 construct: purchased DiscoverX (KINOMEscan)

[7] = molecular target: T7, PLK3 (Homo sapiens, UniProt Q9H4B4)
T7 construct: purchased DiscoverX (KINOMEscan)

[8] = molecular target: T8, CDK4-cyclinD3 (Homo sapiens, UniProt P11802)
T8 construct: purchased DiscoverX (KINOMEscan)

[9] = molecular target: T9, MEK3 (Homo sapiens, UniProt P46734)
T9 construct: purchased DiscoverX (KINOMEscan)
T9 sequence (P46734 whole entry): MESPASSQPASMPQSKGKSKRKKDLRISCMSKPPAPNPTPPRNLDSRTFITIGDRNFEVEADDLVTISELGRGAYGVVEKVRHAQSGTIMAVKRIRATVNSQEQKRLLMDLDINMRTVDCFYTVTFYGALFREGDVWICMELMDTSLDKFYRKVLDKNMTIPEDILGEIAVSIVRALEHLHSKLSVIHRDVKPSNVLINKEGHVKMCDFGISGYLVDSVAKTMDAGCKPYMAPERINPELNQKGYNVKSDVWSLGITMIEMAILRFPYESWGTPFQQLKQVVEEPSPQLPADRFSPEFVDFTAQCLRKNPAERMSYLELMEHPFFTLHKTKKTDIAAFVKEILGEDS

[10] = molecular target: T10, JNK3 (Homo sapiens, UniProt P53779)
T10 construct: purchased DiscoverX (KINOMEscan)

[11] = molecular target: T11, KIT(L576P) (Homo sapiens, UniProt P10721, L576P)
T11 construct: purchased DiscoverX (KINOMEscan)
T11 sequence (P10721 26-976 L576P): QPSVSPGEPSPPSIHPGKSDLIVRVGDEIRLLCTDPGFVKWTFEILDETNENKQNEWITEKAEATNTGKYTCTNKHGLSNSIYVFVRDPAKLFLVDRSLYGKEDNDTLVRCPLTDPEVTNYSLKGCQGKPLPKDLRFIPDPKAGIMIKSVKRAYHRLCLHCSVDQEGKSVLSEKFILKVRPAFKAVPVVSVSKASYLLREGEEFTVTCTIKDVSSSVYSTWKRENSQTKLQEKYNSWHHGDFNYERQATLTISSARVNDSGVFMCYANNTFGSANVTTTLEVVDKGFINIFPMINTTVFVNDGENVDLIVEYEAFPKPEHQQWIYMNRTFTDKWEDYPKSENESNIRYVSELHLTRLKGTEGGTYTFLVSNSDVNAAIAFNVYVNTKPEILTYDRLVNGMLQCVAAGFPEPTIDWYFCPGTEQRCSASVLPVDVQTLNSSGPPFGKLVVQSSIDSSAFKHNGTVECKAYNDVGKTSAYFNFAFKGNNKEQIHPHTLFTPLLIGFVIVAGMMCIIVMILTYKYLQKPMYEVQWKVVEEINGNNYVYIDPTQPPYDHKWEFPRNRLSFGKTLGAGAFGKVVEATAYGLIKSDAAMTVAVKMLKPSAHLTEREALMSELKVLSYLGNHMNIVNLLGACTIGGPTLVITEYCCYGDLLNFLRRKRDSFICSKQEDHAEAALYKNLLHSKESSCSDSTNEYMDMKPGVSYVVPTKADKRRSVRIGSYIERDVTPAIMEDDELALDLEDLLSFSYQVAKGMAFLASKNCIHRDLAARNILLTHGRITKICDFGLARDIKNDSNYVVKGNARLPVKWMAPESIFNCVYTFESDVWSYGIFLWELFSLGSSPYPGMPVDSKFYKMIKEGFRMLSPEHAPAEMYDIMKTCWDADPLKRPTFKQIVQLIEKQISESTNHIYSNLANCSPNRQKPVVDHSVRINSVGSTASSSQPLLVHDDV

[12] = molecular target: T12, ERN1 (Homo sapiens, UniProt O75460)
T12 construct: purchased DiscoverX (KINOMEscan)
T12 sequence (O75460 19-977): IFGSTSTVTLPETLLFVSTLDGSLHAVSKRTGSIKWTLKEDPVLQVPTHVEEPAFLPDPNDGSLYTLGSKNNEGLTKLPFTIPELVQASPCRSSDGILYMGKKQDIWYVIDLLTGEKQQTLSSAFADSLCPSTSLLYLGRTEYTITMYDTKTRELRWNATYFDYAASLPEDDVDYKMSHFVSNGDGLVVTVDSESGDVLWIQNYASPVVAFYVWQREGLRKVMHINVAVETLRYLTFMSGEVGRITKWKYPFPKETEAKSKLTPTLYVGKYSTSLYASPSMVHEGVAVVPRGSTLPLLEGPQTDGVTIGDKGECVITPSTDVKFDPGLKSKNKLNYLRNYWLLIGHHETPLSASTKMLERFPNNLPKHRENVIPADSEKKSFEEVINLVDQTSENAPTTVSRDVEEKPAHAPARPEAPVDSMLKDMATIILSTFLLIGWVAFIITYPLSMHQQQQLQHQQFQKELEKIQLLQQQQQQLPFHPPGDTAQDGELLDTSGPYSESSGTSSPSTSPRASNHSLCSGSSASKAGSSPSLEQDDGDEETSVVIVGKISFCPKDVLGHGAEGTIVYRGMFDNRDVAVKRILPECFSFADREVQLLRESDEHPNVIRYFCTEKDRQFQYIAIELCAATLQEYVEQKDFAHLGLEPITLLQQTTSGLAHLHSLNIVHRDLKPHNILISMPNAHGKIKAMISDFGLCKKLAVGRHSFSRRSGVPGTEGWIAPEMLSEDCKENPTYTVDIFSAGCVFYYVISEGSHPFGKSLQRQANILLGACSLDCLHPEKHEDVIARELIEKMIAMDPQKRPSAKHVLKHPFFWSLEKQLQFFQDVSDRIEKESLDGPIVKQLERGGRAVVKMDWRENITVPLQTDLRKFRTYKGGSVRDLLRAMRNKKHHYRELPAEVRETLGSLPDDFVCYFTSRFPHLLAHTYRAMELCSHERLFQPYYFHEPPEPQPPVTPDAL

[13] = molecular target: T13, PAK2 (Homo sapiens, UniProt Q13177)
T13 construct: purchased DiscoverX (KINOMEscan)

[14] = molecular target: T14, BRSK1 (Homo sapiens, UniProt Q8TDC3)
T14 construct: purchased DiscoverX (KINOMEscan)

[15] = molecular target: T15, HCK (Homo sapiens, UniProt P08631)
T15 construct: purchased DiscoverX (KINOMEscan)
T15 sequence (P08631 whole entry): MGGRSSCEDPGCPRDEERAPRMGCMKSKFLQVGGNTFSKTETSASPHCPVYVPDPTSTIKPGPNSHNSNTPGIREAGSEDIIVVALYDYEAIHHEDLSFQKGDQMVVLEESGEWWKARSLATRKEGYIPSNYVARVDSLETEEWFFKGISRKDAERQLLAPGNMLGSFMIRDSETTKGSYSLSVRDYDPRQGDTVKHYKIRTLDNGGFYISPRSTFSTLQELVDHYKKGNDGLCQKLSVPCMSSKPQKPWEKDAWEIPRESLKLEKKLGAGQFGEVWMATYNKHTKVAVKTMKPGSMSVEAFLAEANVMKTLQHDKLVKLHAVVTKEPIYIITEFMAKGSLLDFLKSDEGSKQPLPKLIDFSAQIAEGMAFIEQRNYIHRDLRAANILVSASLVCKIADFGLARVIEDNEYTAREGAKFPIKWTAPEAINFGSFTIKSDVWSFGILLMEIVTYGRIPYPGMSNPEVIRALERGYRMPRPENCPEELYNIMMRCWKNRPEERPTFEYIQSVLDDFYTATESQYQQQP

[16] = molecular target: T16, TAOK1 (Homo sapiens, UniProt Q7L7X3)
T16 construct: purchased DiscoverX (KINOMEscan)

[17] = molecular target: T17, NDR1 (Homo sapiens, UniProt Q15208)
T17 construct: purchased DiscoverX (KINOMEscan)

[18] = molecular target: T18, EGFR(L858RT790M) (Homo sapiens, UniProt P00533, L858R/T790M)
T18 construct: purchased DiscoverX (KINOMEscan)

[19] = molecular target: T19, YES (Homo sapiens, UniProt P07947)
T19 construct: purchased DiscoverX (KINOMEscan)

[20] = molecular target: T20, KIT(D816V) (Homo sapiens, UniProt P10721, D816V)
T20 construct: purchased DiscoverX (KINOMEscan)
T20 sequence (P10721 26-976 D816V): as the sequence (P10721 26-976 L576P) above, with P551L, D791V counted along it

[21] = molecular target: T21, ABL1(Q252H)-phosphorylated (Homo sapiens, UniProt P00519, Q252H)
T21 construct: purchased DiscoverX (KINOMEscan)

[22] = molecular target: T22, FGFR3(G697C) (Homo sapiens, UniProt P22607, G697C)
T22 construct: purchased DiscoverX (KINOMEscan)

[23] = molecular target: T23, PLK4 (Homo sapiens, UniProt O00444)
T23 construct: purchased DiscoverX (KINOMEscan)

[24] = molecular target: T24, PRKCD (Homo sapiens, UniProt Q05655)
T24 construct: purchased DiscoverX (KINOMEscan)

[25] = molecular target: T25, EGFR(T790M) (Homo sapiens, UniProt P00533, T790M)
T25 construct: purchased DiscoverX (KINOMEscan)

[26] = molecular target: T26, ERBB3 (Homo sapiens, UniProt P21860)
T26 construct: purchased DiscoverX (KINOMEscan)

[27] = molecular target: T27, p38-alpha (Homo sapiens, UniProt Q16539)
T27 construct: purchased DiscoverX (KINOMEscan)
T27 sequence (Q16539 whole entry): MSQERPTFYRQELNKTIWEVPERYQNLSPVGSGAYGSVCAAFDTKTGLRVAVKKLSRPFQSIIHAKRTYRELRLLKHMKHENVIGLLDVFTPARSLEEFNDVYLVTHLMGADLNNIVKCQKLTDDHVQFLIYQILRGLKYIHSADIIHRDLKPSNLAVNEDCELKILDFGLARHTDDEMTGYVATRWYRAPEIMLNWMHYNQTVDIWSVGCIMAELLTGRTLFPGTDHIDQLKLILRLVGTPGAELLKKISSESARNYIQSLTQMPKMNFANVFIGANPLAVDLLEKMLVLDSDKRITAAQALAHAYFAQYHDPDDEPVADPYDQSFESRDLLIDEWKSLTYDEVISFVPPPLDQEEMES

[28] = molecular target: T28, TRKB (Homo sapiens, UniProt Q16620)
T28 construct: purchased DiscoverX (KINOMEscan)
T28 sequence (Q16620 32-822): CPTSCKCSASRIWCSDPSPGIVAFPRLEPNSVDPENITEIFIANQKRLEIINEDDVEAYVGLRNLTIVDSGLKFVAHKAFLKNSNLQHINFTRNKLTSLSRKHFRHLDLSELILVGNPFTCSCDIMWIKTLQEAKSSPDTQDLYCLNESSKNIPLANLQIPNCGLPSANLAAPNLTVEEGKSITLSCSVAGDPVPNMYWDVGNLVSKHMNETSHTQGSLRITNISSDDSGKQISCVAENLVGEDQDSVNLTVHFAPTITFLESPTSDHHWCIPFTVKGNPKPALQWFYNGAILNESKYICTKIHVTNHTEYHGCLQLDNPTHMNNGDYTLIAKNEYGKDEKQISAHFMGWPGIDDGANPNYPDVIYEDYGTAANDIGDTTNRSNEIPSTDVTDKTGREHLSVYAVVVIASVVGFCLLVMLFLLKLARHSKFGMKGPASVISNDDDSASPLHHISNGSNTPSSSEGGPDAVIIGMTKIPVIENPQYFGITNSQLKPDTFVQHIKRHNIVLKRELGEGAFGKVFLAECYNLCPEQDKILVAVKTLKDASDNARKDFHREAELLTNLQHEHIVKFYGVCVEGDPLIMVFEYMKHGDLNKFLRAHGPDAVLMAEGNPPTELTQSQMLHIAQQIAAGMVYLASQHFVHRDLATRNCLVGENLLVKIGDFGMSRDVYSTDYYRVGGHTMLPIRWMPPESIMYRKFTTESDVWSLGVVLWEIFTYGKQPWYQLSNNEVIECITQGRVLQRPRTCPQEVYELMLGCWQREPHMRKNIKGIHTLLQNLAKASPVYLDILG

[29] = molecular target: T29, PAK3 (Homo sapiens, UniProt O75914)
T29 construct: purchased DiscoverX (KINOMEscan)
T29 sequence (O75914 whole entry): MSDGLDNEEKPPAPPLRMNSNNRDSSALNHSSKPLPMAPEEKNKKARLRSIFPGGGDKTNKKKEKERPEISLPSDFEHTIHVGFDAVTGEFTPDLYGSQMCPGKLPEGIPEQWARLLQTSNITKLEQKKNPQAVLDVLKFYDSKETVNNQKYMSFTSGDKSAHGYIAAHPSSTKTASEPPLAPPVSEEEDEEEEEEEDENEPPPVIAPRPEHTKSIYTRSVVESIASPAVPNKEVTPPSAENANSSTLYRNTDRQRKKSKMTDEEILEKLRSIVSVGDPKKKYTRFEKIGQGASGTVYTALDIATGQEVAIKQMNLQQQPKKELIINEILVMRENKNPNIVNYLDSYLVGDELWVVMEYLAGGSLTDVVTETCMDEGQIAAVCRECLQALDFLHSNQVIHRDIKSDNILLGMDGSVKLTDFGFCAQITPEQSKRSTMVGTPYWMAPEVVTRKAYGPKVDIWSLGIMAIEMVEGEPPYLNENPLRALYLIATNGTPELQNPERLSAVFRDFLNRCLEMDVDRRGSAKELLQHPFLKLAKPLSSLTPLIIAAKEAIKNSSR

[30] = molecular target: T30, BMX (Homo sapiens, UniProt P51813)
T30 construct: purchased DiscoverX (KINOMEscan)

[31] = molecular target: T31, PKAC-alpha (Homo sapiens, UniProt P17612)
T31 construct: purchased DiscoverX (KINOMEscan)

[32] = molecular target: T32, CSNK1E (Homo sapiens, UniProt P49674)
T32 construct: purchased DiscoverX (KINOMEscan)

[33] = molecular target: T33, PKAC-beta (Homo sapiens, UniProt P22694)
T33 construct: purchased DiscoverX (KINOMEscan)

[34] = molecular target: T34, EPHA5 (Homo sapiens, UniProt P54756)
T34 construct: purchased DiscoverX (KINOMEscan)

[35] = molecular target: T35, FES (Homo sapiens, UniProt P07332)
T35 construct: purchased DiscoverX (KINOMEscan)

[36] = molecular target: T36, TIE1 (Homo sapiens, UniProt P35590)
T36 construct: purchased DiscoverX (KINOMEscan)

[37] = molecular target: T37, RIPK1 (Homo sapiens, UniProt Q13546)
T37 construct: purchased DiscoverX (KINOMEscan)

[38] = molecular target: T38, MST1 (Homo sapiens, UniProt Q13043)
T38 construct: purchased DiscoverX (KINOMEscan)
T38 sequence (Q13043 whole entry): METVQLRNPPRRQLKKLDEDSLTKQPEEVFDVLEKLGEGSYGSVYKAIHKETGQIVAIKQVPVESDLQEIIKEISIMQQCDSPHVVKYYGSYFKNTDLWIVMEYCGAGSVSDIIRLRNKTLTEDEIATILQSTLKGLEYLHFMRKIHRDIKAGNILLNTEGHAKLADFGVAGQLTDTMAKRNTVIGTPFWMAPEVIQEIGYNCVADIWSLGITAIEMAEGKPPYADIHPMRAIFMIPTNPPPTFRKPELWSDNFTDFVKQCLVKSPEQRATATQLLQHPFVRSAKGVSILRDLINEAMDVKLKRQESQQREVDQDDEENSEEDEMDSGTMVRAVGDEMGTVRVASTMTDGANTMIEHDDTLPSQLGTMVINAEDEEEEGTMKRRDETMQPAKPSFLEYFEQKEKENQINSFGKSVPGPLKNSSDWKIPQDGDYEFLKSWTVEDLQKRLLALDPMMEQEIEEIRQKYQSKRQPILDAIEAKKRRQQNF

[39] = molecular target: T39, GRK4 (Homo sapiens, UniProt P32298)
T39 construct: purchased DiscoverX (KINOMEscan)

[40] = molecular target: T40, INSR (Homo sapiens, UniProt P06213)
T40 construct: purchased DiscoverX (KINOMEscan)

[41] = molecular target: T41, FGFR3 (Homo sapiens, UniProt P22607)
T41 construct: purchased DiscoverX (KINOMEscan)

[42] = molecular target: T42, WEE1 (Homo sapiens, UniProt P30291)
T42 construct: purchased DiscoverX (KINOMEscan)

[43] = molecular target: T43, IGF1R (Homo sapiens, UniProt P08069)
T43 construct: purchased DiscoverX (KINOMEscan)

Structure (SMILES): Nc1ccc(N=Nc2ccccc2)c(N)n1 [phenazopyridine, 2,6-diamino-3-(phenylazo)pyridine]
- kinase inhibition [1]: 92
- kinase inhibition [2]: 100
- kinase inhibition [3]: 84
- kinase inhibition [4]: 100
- kinase inhibition [5]: 100
- kinase inhibition [6]: 86
- remaining binding (% of control) [7]: 98
- kinase inhibition [8]: 100
- kinase inhibition [9]: 54
- kinase inhibition [10]: 91
- kinase inhibition [11]: 44
- kinase inhibition [12]: 82
- kinase inhibition [13]: 97
- kinase inhibition [14]: 62
- kinase inhibition [15]: 100
- kinase inhibition [16]: 93
- kinase inhibition [17]: 100
- kinase inhibition [18]: 100
- kinase inhibition [19]: 100
- kinase inhibition [20]: 100
- kinase inhibition [21]: 100
- kinase inhibition [22]: 100
- kinase inhibition [23]: 89
- kinase inhibition [24]: 100
- kinase inhibition [25]: 100
- kinase inhibition [26]: 91
- kinase inhibition [27]: 100
- kinase inhibition [28]: 81
- kinase inhibition [29]: 99
- kinase inhibition [30]: 100
- kinase inhibition [31]: 100
- kinase inhibition [32]: 44
- kinase inhibition [33]: 95
- kinase inhibition [34]: 97
- kinase inhibition [35]: 100
- kinase inhibition [36]: 91
- remaining binding (% of control) [37]: 100
- kinase inhibition [38]: 88
- kinase inhibition [39]: 95
- kinase inhibition [40]: 75
- kinase inhibition [41]: 91
- kinase inhibition [42]: 100
- kinase inhibition [43]: 100

Source: publication PMC8371461 (Frontiers in Pharmacology, 2021)
